Test results taken from patent US10941113B2, “Sulfamoyl-arylamides and the use thereof as medicaments for the treatment of hepatitis B” (Janssen Sciences Ireland UC, priority 2013, dated 2021).
pEC50: −log10 of the molar value.

Legend:
Format in all cases: cell-based
[1] = Cytotoxicity in HepG2 cells, Resazurin assay; settings: human, incubated 4 days, Resazurin viability
[2] = tested on: HBV; assay: Anti-HBV activity, HepG2.117 inducible HBV producing cell line (Tet-off), intracellular HBV DNA by realtime PCR; settings: Hepatitis B virus, 72 h, HepG2.117 cells, 3 days of treatment
[3] = tested on: HBV; assay: Anti-HBV activity, HepG2.2.15 stable transfected cell line, HBV DNA from secreted virions by realtime PCR; settings: Hepatitis B virus, 144 h, HepG2.2.15 cells, 6 days of treatment

SMILES | CC50 at 4 days [1] | pEC50 [2] | pEC50 [3]
Cc1cc(NC(=O)c2cccc(S(=O)(=O)NC(C)(C)CCO)c2)ccc1F [Compound 15] | > 25000 nM | 6.49 | 6.66
COCC(C)(C)NS(=O)(=O)c1cccc(C(=O)Nc2ccc(F)c(C)c2)c1 [Compound 34] | > 25000 nM | 6.19 | 6.27
Cc1cc(NC(=O)c2cccc(S(=O)(=O)NC(C)CC(=O)N(C)C)c2)ccc1F (stereo not drawn) [Compound 39] | > 25000 nM | 6.07 | 5.98
Cc1cc(NC(=O)c2cccc(S(=O)(=O)N[C@@H](C)C(N)=O)c2)ccc1F [Compound 23] | > 25000 nM | 5.84 | 5.96
COCCC(C)NS(=O)(=O)c1cccc(C(=O)Nc2ccc(F)c(C)c2)c1 (stereo not drawn) [Compound 24] | > 25000 nM | 5.86 | 6.68
CNC(=O)[C@@H](C)NS(=O)(=O)c1cccc(C(=O)Nc2ccc(F)c(C)c2)c1 [Compound 41] | > 25000 nM | 5.87 | 5.65
Cc1cc(NC(=O)c2cccc(S(=O)(=O)N[C@H](CO)C(C)C)c2)ccc1F [Compound 11] | > 25000 nM | 6.08 | 6.26
COCC(C)(CCO)NS(=O)(=O)c1cccc(C(=O)Nc2ccc(F)c(C)c2)c1 (stereo not drawn) [Compound 27] | > 25000 nM | 6.02 | 5.94
Cc1cc(NC(=O)c2cccc(S(=O)(=O)NC(C)(C)CC(C)O)c2)ccc1F (stereo not drawn) [Compound 36] | > 25000 nM | 6.82 | 6.57
Cc1cc(NC(=O)c2cccc(S(=O)(=O)N[C@@H](C)C(=O)N(C)C)c2)ccc1F [Compound 35] | > 25000 nM | 5.44 | 5.57
C#CC(C)(C)NS(=O)(=O)c1cccc(C(=O)Nc2ccc(F)c(C)c2)c1 [Compound 16] | > 25000 nM | 6.23 | 6.72
Cc1cc(NC(=O)c2cccc(S(=O)(=O)NC(C)CO)c2)ccc1F (stereo not drawn) [Compound 4, N-(4-fluoro-3-methyl-phenyl)-3-[(2-hydroxy-1-methyl-ethyl)sulfamoyl]benzamide] | > 25000 nM | 6.49 | 6.55
COC(=O)NC[C@@H](C)NS(=O)(=O)c1cccc(C(=O)Nc2ccc(F)c(C)c2)c1 [Compound 1a] | > 25000 nM | 6.96 | 6.74
COC(=O)NCC(C)NS(=O)(=O)c1cccc(C(=O)Nc2ccc(F)c(C)c2)c1 (stereo not drawn) [Compound 1] | > 25000 nM | 6.43 | 6.89
Cc1cc(NC(=O)c2cccc(S(=O)(=O)NC(C)CN(C)C)c2)ccc1F (stereo not drawn) [Compound 3] | > 25000 nM | 5.96 | 5.12
COCC(C)(CO)NS(=O)(=O)c1cccc(C(=O)Nc2ccc(F)c(C)c2)c1 (stereo not drawn) [Compound 31] | > 25000 nM | 6.33 | 6.32
Cc1cc(NC(=O)c2cccc(S(=O)(=O)NCCS(C)(=O)=O)c2)ccc1F [Compound 32] | > 25000 nM | 6.19 | 6.72
Cc1cc(NC(=O)c2cccc(S(=O)(=O)N[C@@H](C)CNC(=O)OC(C)(C)C)c2)ccc1F [Compound 19] | > 25000 nM | 6.30 | 6.13
Cc1cc(NC(=O)c2cccc(S(=O)(=O)N[C@H](C)C(N)=O)c2)ccc1F [Compound 22] | > 25000 nM | 6.30 | 6.26
COCC(C)NS(=O)(=O)c1cccc(C(=O)Nc2ccc(F)c(C)c2)c1 (stereo not drawn) [Compound 5] | > 25000 nM | 6.08 | 6.62
CC(=O)NCC(C)NS(=O)(=O)c1cccc(C(=O)Nc2ccc(F)c(C)c2)c1 (stereo not drawn) [Compound 9] | > 25000 nM | 6.25 | 5.89
Cc1cc(NC(=O)c2cc(S(=O)(=O)N[C@H](C)CO)ccc2C)ccc1F [Compound 38] | > 25000 nM | 6.74 | 6.80
Cc1cc(NC(=O)c2cccc(S(=O)(=O)N[C@H](C)CO)c2)ccc1F [Compound 4a] | > 25000 nM | 6.59 | 6.68
Cc1cc(NC(=O)c2cccc(S(=O)(=O)NC(C)(C)CO)c2)ccc1F [Compound 14] | > 25000 nM | 6.28 | 6.42

SMILES | CC50 at 4 days [1] | pEC50 [2] | pEC50 [3]
CNCC(C)NS(=O)(=O)c1cccc(C(=O)Nc2ccc(F)c(C)c2)c1 (stereo not drawn) [Compound 2] | > 25000 nM | 5.62 | 5.03
Cc1cc(NC(=O)c2cccc(S(=O)(=O)NCCCC(=O)N(C)C)c2)ccc1F [Compound 17] | > 25000 nM | 6.21 | 6.59
Cc1cc(NC(=O)c2cccc(S(=O)(=O)NC(C)CCCC(C)(C)O)c2)ccc1F (racemic) [Compound 21] | > 25000 nM | 5.77 | 6.77
Cc1cc(NC(=O)c2cccc(S(=O)(=O)N[C@H](C)C(=O)N(C)C)c2)ccc1F [Compound 40] | > 25000 nM | 5.58 | 5.64
CCC[C@@H](CO)NS(=O)(=O)c1cccc(C(=O)Nc2ccc(F)c(C)c2)c1 [Compound 12] | > 25000 nM | 6.09 | 6.19
Cc1cc(NC(=O)c2cccc(S(=O)(=O)N[C@@H](C)CO)c2)ccc1F [Compound 4b] | > 25000 nM | 6.03 | 6.40
CC(=O)CC(C)NS(=O)(=O)c1cccc(C(=O)Nc2ccc(F)c(C)c2)c1 (stereo not drawn) [Compound 29] | > 25000 nM | 6.64 | 6.72
CNC(=O)CCC(C)NS(=O)(=O)c1cccc(C(=O)Nc2ccc(F)c(C)c2)c1 (stereo not drawn) [Compound 7] | > 25000 nM | 6.62 | 6.27
COC(=O)CCC(C)NS(=O)(=O)c1cccc(C(=O)Nc2ccc(F)c(C)c2)c1 (stereo not drawn) [Compound 8] | > 25000 nM | 5.55 | 5.85
CCC(C)(CO)NS(=O)(=O)c1cccc(C(=O)Nc2ccc(F)c(C)c2)c1 (stereo not drawn) [Compound 26] | > 25000 nM | 6.47 | 6.41
Cc1cc(NC(=O)c2cccc(S(=O)(=O)NC(C)CCC(=O)N(C)C)c2)ccc1F (stereo not drawn) [Compound 6] | > 25000 nM | 6.96 | 6.74
Cc1cc(NC(=O)c2cccc(S(=O)(=O)NC(C)CCO)c2)ccc1F (stereo not drawn) [Compound 13] | > 25000 nM | 6.15 | 6.68
Cc1cc(NC(=O)c2cccc(S(=O)(=O)NC(C)C(C)(C)O)c2)ccc1F (stereo not drawn) [Compound 30] | > 25000 nM | 6.77 | 6.59
Cc1cc(NC(=O)c2cccc(S(=O)(=O)N[C@H](C)CNC(=O)OC(C)(C)C)c2)ccc1F [Compound 18] | > 25000 nM | 6.72 | 6.70
COC(C)(C)CC(C)NS(=O)(=O)c1cccc(C(=O)Nc2ccc(F)c(C)c2)c1 (stereo not drawn) [Compound 28] | > 25000 nM | 5.85 | 6.57
Cc1cc(NC(=O)c2cccc(S(=O)(=O)NC(C)C(C)CO)c2)ccc1F (stereo not drawn) [Compound 25] | > 25000 nM | 6.24 | 6.60
COC(=O)N(C)CC(C)NS(=O)(=O)c1cccc(C(=O)Nc2ccc(F)c(C)c2)c1 (stereo not drawn) [Compound 20] | > 25000 nM | 6.25 | 6.26
Cc1cc(NC(=O)c2cccc(S(=O)(=O)NC(C)C(C)O)c2)ccc1F (stereo not drawn) [Compound 33] | > 25000 nM | 6.59 | 6.49
Cc1cc(NC(=O)c2cccc(S(=O)(=O)NC(C)CC#N)c2)ccc1F (racemic) [Compound 10] | > 25000 nM | 6.72 | 6.66
COC(=O)NC[C@H](C)NS(=O)(=O)c1cccc(C(=O)Nc2ccc(F)c(C)c2)c1 [Compound 1b] | > 25000 nM | 5.80 | 5.73
Cc1cc(NC(=O)c2cccc(S(=O)(=O)N[C@H](C)CS(C)(=O)=O)c2)ccc1F [Compound 42] | > 25000 nM | 6.82 | 6.60
Cc1cc(NC(=O)c2cccc(S(=O)(=O)N[C@H](C)CC#N)c2)ccc1F (racemic) [Compound 10a] | > 25000 nM | 6.85 | 7.00
Cc1cc(NC(=O)c2cccc(S(=O)(=O)NCC(C)(C)C(=O)O)c2)ccc1F [Compound 37] | > 25000 nM | 5.52 | 5.57
